# How the values were obtained:
# Assay in all cases: KINOMEscan competition binding
# Conditions in all cases: compound 10.0 µM
# [1] = target: EPHA2 (human) (UniProt P29317)
# [2] = target: STK38L (human) (UniProt Q9Y2H1)
# [3] = target: CHEK1 (human) (UniProt O14757)
# [4] = target: CAMK2A (human) (UniProt Q9UQM7)
# [5] = target: STK17B (human) (UniProt O94768)
# [6] = target: PAK2 (human) (UniProt Q13177)
# [7] = target: SNRK (human) (UniProt Q9NRH2)
# [8] = target: CDC42BPB (human) (UniProt Q9Y5S2)
# [9] = target: CDK4 CCND1 (human) (UniProt P11802+P24385)
# [10] = target: CHUK (human) (UniProt O15111)
# [11] = target: CASK (human) (UniProt O14936)
# [12] = system: KIT (human), P10721 [L576P]
# [13] = target: PRKD3 (human) (UniProt O94806)
# [14] = target: PI4KB (human) (UniProt Q9UBF8)
# [15] = system: EGFR (human), P00533 [P753S; 747-752 del]
# [16] = target: PIK3C2B (human) (UniProt O00750)
# [17] = target: CDC42BPA (human) (UniProt Q5VT25)
# [18] = target: DYRK1B (human) (UniProt Q9Y463)
# [19] = target: DAPK2 (human) (UniProt Q9UIK4)
# [20] = target: CDK13 (human) (UniProt Q14004)
# [21] = target: TNNI3K (human) (UniProt Q59H18)
# [22] = target: CDK15 (human) (UniProt Q96Q40)
# [23] = target: FGFR3 (human) (UniProt P22607)
# [24] = target: PKN1 (human) (UniProt Q16512)
# [25] = target: AKT2 (human) (UniProt P31751)
# [26] = target: PLK2 (human) (UniProt Q9NYY3)
# [27] = target: DCLK1 (human) (UniProt O15075)
# [28] = target: MAP3K9 (human) (UniProt P80192)
# [29] = target: CLK3 (human) (UniProt P49761)
# [30] = target: HIPK4 (human) (UniProt Q8NE63)
# [31] = target: NEK7 (human) (UniProt Q8TDX7)
# [32] = target: LIMK2 (human) (UniProt P53671)
# [33] = target: MKNK1 (human) (UniProt Q9BUB5)
# [34] = target: FLT1 (human) (UniProt P17948)
# [35] = target: DMPK (human) (UniProt Q09013)
# [36] = target: PAK7 (human) (UniProt Q9P286)
# [37] = target: STK32C (human) (UniProt Q86UX6)
# [38] = target: EPHB3 (human) (UniProt P54753)
# [39] = target: BRSK2 (human) (UniProt Q8IWQ3)
# [40] = target: CDKL3 (human) (UniProt Q8IVW4)
# [41] = target: STK25 (human) (UniProt O00506)
# [42] = target: ERN1 (human) (UniProt O75460)
# Chain of ERN1 (human) (O75460 whole entry, looked up): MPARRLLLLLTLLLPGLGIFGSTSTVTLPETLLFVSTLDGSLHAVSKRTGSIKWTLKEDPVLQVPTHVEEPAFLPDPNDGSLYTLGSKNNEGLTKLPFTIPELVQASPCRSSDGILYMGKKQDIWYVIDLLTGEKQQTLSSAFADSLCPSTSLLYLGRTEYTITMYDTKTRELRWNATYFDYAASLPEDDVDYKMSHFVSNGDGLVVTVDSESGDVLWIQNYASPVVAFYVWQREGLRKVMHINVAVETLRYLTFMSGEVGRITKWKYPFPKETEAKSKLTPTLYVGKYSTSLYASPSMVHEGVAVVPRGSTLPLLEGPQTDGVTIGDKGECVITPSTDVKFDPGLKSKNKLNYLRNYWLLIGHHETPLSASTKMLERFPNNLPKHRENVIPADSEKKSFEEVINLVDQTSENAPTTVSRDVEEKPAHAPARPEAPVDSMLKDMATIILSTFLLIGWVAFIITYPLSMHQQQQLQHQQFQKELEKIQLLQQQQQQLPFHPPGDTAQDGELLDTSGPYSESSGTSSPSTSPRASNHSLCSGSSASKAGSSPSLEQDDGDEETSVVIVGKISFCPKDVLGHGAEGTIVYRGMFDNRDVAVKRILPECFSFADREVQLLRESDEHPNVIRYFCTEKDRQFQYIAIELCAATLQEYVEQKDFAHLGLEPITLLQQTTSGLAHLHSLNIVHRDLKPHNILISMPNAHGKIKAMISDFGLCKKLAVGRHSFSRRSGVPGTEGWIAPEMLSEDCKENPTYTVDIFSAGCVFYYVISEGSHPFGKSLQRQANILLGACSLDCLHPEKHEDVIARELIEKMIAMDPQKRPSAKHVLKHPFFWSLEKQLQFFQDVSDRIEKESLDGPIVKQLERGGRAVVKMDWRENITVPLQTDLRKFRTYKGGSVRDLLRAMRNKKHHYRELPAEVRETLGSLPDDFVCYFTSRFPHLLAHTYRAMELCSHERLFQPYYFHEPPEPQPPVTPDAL
# Chain of PKN1 (human) (Q16512 whole entry, looked up): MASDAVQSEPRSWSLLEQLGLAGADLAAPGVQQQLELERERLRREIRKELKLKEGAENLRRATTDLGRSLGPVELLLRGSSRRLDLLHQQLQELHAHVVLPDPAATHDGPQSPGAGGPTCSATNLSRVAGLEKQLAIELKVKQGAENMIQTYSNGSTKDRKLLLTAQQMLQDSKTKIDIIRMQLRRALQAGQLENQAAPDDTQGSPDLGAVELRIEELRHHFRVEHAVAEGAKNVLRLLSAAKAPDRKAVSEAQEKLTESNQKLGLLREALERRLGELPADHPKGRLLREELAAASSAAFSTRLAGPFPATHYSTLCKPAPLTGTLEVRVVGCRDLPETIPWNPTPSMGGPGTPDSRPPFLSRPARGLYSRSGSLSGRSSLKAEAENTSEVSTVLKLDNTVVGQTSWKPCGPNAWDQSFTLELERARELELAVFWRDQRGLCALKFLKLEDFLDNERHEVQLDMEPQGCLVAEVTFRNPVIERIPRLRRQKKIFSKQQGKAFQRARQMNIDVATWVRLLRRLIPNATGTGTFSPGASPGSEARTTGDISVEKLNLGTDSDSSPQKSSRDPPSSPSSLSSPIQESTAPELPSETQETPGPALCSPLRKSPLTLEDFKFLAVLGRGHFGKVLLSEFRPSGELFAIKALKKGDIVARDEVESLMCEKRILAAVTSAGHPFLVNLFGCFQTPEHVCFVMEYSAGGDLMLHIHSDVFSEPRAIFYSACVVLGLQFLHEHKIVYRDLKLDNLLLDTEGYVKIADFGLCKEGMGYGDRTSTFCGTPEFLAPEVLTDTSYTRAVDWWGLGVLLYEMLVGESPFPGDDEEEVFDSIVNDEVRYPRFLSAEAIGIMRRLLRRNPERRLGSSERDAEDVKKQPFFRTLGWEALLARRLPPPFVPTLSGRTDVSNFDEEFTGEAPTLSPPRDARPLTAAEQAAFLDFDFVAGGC
# Chain of CDK13 (human) (Q14004 whole entry, looked up): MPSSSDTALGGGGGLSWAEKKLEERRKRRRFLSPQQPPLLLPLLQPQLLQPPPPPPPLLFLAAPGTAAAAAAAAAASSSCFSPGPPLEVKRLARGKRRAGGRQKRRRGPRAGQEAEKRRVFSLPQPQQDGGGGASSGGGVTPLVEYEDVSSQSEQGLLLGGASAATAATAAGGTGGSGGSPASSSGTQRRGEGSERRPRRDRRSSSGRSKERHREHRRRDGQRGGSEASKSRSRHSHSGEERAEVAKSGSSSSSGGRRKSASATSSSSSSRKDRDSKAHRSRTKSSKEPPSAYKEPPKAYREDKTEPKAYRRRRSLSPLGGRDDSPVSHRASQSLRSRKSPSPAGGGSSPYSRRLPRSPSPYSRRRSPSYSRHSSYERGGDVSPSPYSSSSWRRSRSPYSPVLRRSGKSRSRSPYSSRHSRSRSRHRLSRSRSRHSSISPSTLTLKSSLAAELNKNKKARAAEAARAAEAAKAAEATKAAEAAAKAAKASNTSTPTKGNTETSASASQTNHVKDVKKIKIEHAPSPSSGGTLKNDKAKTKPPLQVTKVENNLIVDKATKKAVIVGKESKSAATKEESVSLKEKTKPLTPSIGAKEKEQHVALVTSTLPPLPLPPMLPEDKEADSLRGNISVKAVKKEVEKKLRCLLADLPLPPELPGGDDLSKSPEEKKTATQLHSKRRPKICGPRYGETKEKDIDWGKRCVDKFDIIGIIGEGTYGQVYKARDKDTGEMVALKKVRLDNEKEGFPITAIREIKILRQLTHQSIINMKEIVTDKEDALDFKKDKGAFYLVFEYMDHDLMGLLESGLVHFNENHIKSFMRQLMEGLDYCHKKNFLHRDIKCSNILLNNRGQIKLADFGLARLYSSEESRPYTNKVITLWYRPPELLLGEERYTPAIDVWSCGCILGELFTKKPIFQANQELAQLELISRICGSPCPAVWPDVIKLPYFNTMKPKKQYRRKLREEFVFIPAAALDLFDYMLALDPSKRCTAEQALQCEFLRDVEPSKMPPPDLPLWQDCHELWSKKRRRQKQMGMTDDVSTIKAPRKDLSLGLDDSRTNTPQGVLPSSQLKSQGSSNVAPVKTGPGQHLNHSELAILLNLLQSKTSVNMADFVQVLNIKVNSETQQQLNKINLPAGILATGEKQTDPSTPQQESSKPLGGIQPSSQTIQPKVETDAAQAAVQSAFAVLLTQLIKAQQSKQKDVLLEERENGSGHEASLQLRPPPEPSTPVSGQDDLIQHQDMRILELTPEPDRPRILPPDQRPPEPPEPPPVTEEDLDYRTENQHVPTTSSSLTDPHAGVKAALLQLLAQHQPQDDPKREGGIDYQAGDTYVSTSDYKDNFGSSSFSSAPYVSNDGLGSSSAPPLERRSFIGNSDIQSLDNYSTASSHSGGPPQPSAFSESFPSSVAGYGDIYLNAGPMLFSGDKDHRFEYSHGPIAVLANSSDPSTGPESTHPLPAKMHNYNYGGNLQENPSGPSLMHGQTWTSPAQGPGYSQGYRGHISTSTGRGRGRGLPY
# Chain of MKNK1 (human) (Q9BUB5 whole entry, looked up): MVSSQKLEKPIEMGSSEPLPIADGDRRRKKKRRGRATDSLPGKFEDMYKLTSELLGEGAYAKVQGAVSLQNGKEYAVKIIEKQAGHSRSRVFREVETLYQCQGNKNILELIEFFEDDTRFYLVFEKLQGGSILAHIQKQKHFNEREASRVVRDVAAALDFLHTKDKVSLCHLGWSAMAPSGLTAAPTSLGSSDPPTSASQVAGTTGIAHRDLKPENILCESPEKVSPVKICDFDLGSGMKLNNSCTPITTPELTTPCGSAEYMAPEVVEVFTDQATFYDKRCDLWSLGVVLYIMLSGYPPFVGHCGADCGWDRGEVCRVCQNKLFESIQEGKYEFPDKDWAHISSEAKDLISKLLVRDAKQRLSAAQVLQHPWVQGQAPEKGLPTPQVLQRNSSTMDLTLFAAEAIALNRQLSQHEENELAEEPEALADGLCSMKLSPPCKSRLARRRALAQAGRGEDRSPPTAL
# Chain of CDK4 CCND1 (human) (P11802 whole entry, looked up): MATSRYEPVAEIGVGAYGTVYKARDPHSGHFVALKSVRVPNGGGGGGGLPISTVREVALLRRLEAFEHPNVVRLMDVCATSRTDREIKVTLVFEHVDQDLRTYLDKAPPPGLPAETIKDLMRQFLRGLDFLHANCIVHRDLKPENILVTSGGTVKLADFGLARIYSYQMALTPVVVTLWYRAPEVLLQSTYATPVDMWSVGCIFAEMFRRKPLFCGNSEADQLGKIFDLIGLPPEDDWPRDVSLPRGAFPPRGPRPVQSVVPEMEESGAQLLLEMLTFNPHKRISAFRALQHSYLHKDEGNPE
# Chain of CDK4 CCND1 (human) (P24385 whole entry, looked up): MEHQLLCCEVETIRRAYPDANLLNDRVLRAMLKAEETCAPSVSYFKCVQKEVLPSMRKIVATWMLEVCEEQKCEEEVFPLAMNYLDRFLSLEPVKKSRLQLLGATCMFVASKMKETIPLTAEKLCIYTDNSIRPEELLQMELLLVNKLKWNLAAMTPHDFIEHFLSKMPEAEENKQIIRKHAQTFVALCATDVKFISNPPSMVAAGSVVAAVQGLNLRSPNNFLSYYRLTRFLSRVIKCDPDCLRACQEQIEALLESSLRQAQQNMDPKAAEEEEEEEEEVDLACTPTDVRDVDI
# Chain of STK38L (human) (Q9Y2H1 whole entry, looked up): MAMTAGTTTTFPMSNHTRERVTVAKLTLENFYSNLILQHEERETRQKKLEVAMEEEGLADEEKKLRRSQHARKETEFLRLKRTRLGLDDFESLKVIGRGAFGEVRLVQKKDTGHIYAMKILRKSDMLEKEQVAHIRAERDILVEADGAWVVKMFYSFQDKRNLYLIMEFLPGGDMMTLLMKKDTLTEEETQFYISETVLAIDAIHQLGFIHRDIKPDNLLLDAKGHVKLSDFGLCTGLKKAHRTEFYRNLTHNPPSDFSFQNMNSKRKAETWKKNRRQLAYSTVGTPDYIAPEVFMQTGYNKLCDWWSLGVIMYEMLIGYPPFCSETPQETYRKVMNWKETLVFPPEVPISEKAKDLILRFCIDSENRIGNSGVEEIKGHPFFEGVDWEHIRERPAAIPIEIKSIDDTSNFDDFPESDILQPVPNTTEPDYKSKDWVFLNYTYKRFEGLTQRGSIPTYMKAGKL
compound,measurement,setting,value
Cc1cc([C@@H](C)Nc2ccccc2C(=O)O)c2nc(N3CCOCC3)cc(=O)n2c1,"kinase still bound, per cent of control",[1],99%
same,"kinase still bound, per cent of control",[2],92%
same,"kinase still bound, per cent of control",[3],64%
same,"kinase still bound, per cent of control",[4],66%
same,"kinase still bound, per cent of control",[5],100%
same,"kinase still bound, per cent of control",[6],100%
same,"kinase still bound, per cent of control",[7],54%
same,"kinase still bound, per cent of control",[8],100%
same,"kinase still bound, per cent of control",[9],38%
same,"kinase still bound, per cent of control",[10],69%
same,"kinase still bound, per cent of control",[11],100%
same,"kinase still bound, per cent of control",[12],90%
same,"kinase still bound, per cent of control",[13],85%
same,"kinase still bound, per cent of control",[14],89%
same,"kinase still bound, per cent of control",[15],100%
same,"kinase still bound, per cent of control",[16],1%
same,"kinase still bound, per cent of control",[17],100%
same,"kinase still bound, per cent of control",[18],100%
same,"kinase still bound, per cent of control",[19],74%
same,"kinase still bound, per cent of control",[20],100%
same,"kinase still bound, per cent of control",[21],15%
same,"kinase still bound, per cent of control",[22],100%
same,"kinase still bound, per cent of control",[23],100%
same,"kinase still bound, per cent of control",[24],100%
same,"kinase still bound, per cent of control",[25],100%
same,"kinase still bound, per cent of control",[26],100%
same,"kinase still bound, per cent of control",[27],100%
same,"kinase still bound, per cent of control",[28],100%
same,"kinase still bound, per cent of control",[29],95%
same,"kinase still bound, per cent of control",[30],56%
same,"kinase still bound, per cent of control",[31],98%
same,"kinase still bound, per cent of control",[32],100%
same,"kinase still bound, per cent of control",[33],31%
same,"kinase still bound, per cent of control",[34],96%
same,"kinase still bound, per cent of control",[35],95%
same,"kinase still bound, per cent of control",[36],92%
same,"kinase still bound, per cent of control",[37],89%
same,"kinase still bound, per cent of control",[38],100%
same,"kinase still bound, per cent of control",[39],94%
same,"kinase still bound, per cent of control",[40],96%
same,"kinase still bound, per cent of control",[41],100%
same,"kinase still bound, per cent of control",[42],100%
